{
  "source": "paper PMC3983056",
  "about": "(PLoS Pathogens, 2014)",
  "key": {"[1]": {"test_system": "HIV expressing a luciferase reporter gene (NL4-3-Luc) in latently infected primary CD4 T cells", "assay": "microbe, parasite or virus in culture", "assay_type": "cell-based", "settings": "continuous 48 hours, cells from three healthy donors, mean ± SD", "excerpt": "To assess clinically tested HDACi for their ability to activate HIV from latency, we first employed a previously described in vitro HIV latency model, [30] with several modifications to increase the sensitivity of detection. The assay involves freshly isolated naïve CD4 T cells from healthy donors polarized to a Th0 phenotype, which mimics memory CD4 T cells. These Th0 cells are then infected with HIV expressing a luciferase reporter gene and cultured for an additional 7 to 10 days until a latent infection is established.\nTotal peripheral blood mononuclear cells (PBMCs) were obtained from healthy HIV-negative donors by leukapheresis (AllCells, Inc, Emeryville, CA). […] Purified naive CD4+ T cells were activated by incubation with anti-CD3/CD28 magnetic Dynabeads (1 bead: 2 cells ratio, Life Technologies), 1 µg/ml anti-IL-4 (R&D Systems, Minneapolis, MN), 2 µg/ml anti-IL-12p70 antibodies (R&D Systems), and 10 ng/ml TGF-β (R&D Systems) for 3 days, [59]. Following the removal of anti-CD3/CD28 beads and antibodies, cells were maintained in 30 U/ml IL-2 (Life Technologies) for 2 days. Cells were then infected with NL4.3-Luc in the presence of 50 µg/ml DEAE for 3 hours. Cells were maintained in the continued presence of 30 U/ml IL-2 throughout the infection and subsequent rest period with culture medium with fresh IL-2 replaced every 2–3 days. Seven days post-infection, 20 µl of latently infected cells were dispensed into 384 well plates using a MicroFlo dispenser (Biotek Insturments, VT) at 10,000 cells/well containing 100 nl of compound solutions delivered by the Echo acoustic-based liquid dispenser (Labcyte, Sunnyvale, CA). After a 48-hour incubation, 16 µl/well BriteGlo (Promega, Madison, WI) was added and luminescence measured using the Envision plate reader (Perkin Elmer, Waltham, MA). Compound-associated cytotoxicity was determined in latently infected cells in parallel with the virus activation assay. Cells were incubated with compounds for 48 hours at 37°C, and cell viability was determined using Cell Titer Glo reagent (Promega)."}, "[2]": {"assay": "Compound-associated cytotoxicity in latently infected cells (Cell Titer Glo)", "assay_type": "cell-based, human", "settings": "human, latently infected (NL4.3-Luc) primary CD4+ T cells, continuous 48 hours, 50% cell viability reduction, three donors, mean ± SD", "procedure": "Total peripheral blood mononuclear cells (PBMCs) were obtained from healthy HIV-negative donors by leukapheresis (AllCells, Inc, Emeryville, CA). Naive CD4+ T cells were purified by negative selection using EasySep magnetic beads (StemCells, Inc, Vancouver, Canada) and cultured in RPMI with 10% fetal bovine serum (FBS), penicillin/streptomycin, 1% nonessential amino acids (Life Technologies, Carlsbad, CA), 1% sodium pyruvate (Life Technologies) and 495 nM beta-mercaptoethanol (Sigma Aldrich, St. Louis, MO) in a 37°C, 5% CO2 incubator. Purified naive CD4+ T cells were activated by incubation with anti-CD3/CD28 magnetic Dynabeads (1 bead: 2 cells ratio, Life Technologies), 1 µg/ml anti-IL-4 (R&D Systems, Minneapolis, MN), 2 µg/ml anti-IL-12p70 antibodies (R&D Systems), and 10 ng/ml TGF-β (R&D Systems) for 3 days, [59]. Following the removal of anti-CD3/CD28 beads and antibodies, cells were maintained in 30 U/ml IL-2 (Life Technologies) for 2 days. Cells were then infected with NL4.3-Luc in the presence of 50 µg/ml DEAE for 3 hours. Cells were maintained in the continued presence of 30 U/ml IL-2 throughout the infection and subsequent rest period with culture medium with fresh IL-2 replaced every 2–3 days. Seven days post-infection, 20 µl of latently infected cells were dispensed into 384 well plates using a MicroFlo dispenser (Biotek Insturments, VT) at 10,000 cells/well containing 100 nl of compound solutions delivered by the Echo acoustic-based liquid dispenser (Labcyte, Sunnyvale, CA). After a 48-hour incubation, 16 µl/well BriteGlo (Promega, Madison, WI) was added and luminescence measured using the Envision plate reader (Perkin Elmer, Waltham, MA). Compound-associated cytotoxicity was determined in latently infected cells in parallel with the virus activation assay. Cells were incubated with compounds for 48 hours at 37°C, and cell viability was determined using Cell Titer Glo reagent (Promega)."}, "[3]": {"test_system": "total class I and II HDAC enzyme activity in resting CD4 T cells", "settings": "pulse RMD 4 hours, VOR 24 hours, PNB 24 hours, 6 to 48 hours", "procedure": "Resting CD4 T cells obtained from HIV-infected patients on suppressive cART were incubated with serial dilutions of HDACi in 96-well plates at 10,000 cells/well for indicated time and then lysed by repeated freezing and thawing. Total cellular HDAC activity was measured using the HDAC-Glo I/II assay kit (Promega) according to the manufacturer's protocol."}, "HIV": {"test_system": "HIV", "settings": "cited from earlier work"}, "[4]": {"test_system": "latent HIV in resting CD4 T cells from HIV-infected patients on suppressive cART", "assay_type": "cell-based", "settings": "for HIV RNA avg: Figure 4, 25 nM PNB, one value per donor; for persistence of intracellular HIV RNA induction: pulse RMD 4 hours, VOR 24 hours, PNB 24 hours, 6 to 48 hours", "procedure": "(§1) To examine the kinetics of HIV induction, we analyzed cell-associated viral RNA levels at 6, 12, 24, and 48 hours after treatment initiation.\n(§2) Lysates were filtered through a Qiashredder (Qiagen)."}, "[5]": {"test_system": "HIV gag-pol RNA from resting CD4 T cells of a cART-suppressed patient", "assay": "Single-genome sequencing of HIV RNA in culture supernatants", "assay_type": "cell-based", "settings": "2 µM SAHA, day 7", "excerpt": "In parallel, we assessed the sequence diversity of HIV proviruses integrated in genomic DNA of resting CD4 T cells from the same culture.\nFigure 8 Phylogenetic analysis of HIV sequences expressed ex vivo following the latency reversal. […] Single-genome sequencing was used to analyze patient HIV proviral DNA and plasma RNA at the initiation of treatment (day 0), together with the ex vivo induced HIV RNA in cell culture supernatants at the end of treatment (day 7). […] Identified HIV DNA and RNA sequences were aligned and the phylogenetic tree was constructed using Clustal W and MEAG5.\nSingle-genome sequencing of a portion of HIV-1 gag-pro-pol amplified from cell culture supernatants or cellular DNA extracts was performed as previously described [34]–[36]. Sequences were aligned using ClustalW and neighbor-joining phylogenetic analysis was performed using MEGA5. Trees were rooted on the subtype B consensus sequence (www.hiv.lanl.gov)."}, "[6]": {"test_system": "latently infected cells expressing Bcl2", "set-up": "method as in PMID 22406268", "settings": "in vitro latency model with ectopic Bcl2; cited from earlier work"}, "[7]": {"assay": "Cell culture medium protein binding by equilibrium dialysis, HPLC/mass spectrometry", "assay_type": "in vitro ADME"}, "[8]": {"test_system": "latent HIV in resting CD4 T cells from HIV-infected patients on suppressive cART", "assay": "Ex vivo release of extracellular HIV RNA into culture supernatants, resting CD4 T cells", "assay_type": "cell-based", "settings": "resting CD4 T cells", "experimental": "(§3) HIV-infected patients participating in the study were selected based on sustained plasma viral load suppression (<50 copies/ml for >12 months), CD4 counts (>350 cells/µL), and absence of co-infection with hepatitis B or C virus (Supplementary Table S1). Clinical laboratory results were reconfirmed 2 weeks before leukapheresis or blood draw. Leukapheresis was conducted for 3–4 hours, and samples were processed within 2 hours after collection. The leukapheresis product was diluted 1∶1 with PBS and layered over Ficoll for isolation of PBMCs. […] Resting CD4 T cells were isolated by first enriching total CD4 T cells (StemCell Technologies) and subsequently depleting HLA-DR-, CD25-, and CD69-positive cells via negative selection (Miltenyi Biotec, Auburn, CA).\n(§4) To assess HIV activation by HDACi, up to 5 million CD4 T cells were plated in 24-well plates in 2.5 ml of media, supplemented with antiretrovirals (ARVs) (100 nM elvitegravir and 100–300 nM efavirenz) for the entire duration of culture incubation. HDACi were added at specified concentrations on day 0 and cells or culture supernatants were harvested for the analysis of HIV RNA at the indicated time points (6–48 hours or 6–7 days, respectively). For HDACi pulse treatment, cultures were washed twice using ARV-containing media at 4 or 24 hours after addition of HDACi and incubated with ARVs until harvest. To measure HIV RNA levels, 1 ml of culture supernatant was analyzed by a robotic COBAS AmpliPrep/TaqMan system (Roche Diagnostics, Indianapolis, IN), which extracts total nucleic acid and quantifies HIV RNA in copies per milliliter using the HIV-1 Test, v2.0 kit (Roche Diagnostics). For the measurement of cell-associated HIV RNA levels, cells were washed with PBS, counted, and lysed (Qiagen RLT buffer, 400 µl for every 2 million cells; Qiagen, Venlo, Netherlands). Lysates were filtered through a Qiashredder (Qiagen). Total RNA was prepared from the lysates (400 µl) using a robotic system (QIAsymphony, Qiagen) that incorporates a DNase I digestion step to eliminate cellular DNA. The resulting total RNA was eluted with 200 µl of buffer, diluted to 1 ml with nuclease-free water, and analyzed by COBAS using the HIV-1 Test v2.0 kit. Preparations of both cell-associated RNA and supernatant total nucleic acids were tested for potential contamination with HIV DNA and/or host DNA by performing the PCR amplification in the presence and absence of reverse transcriptase and by a detection of GAPDH-encoding host DNA sequence.\n(§5) HIV RNA-induction experiments were conducted using 5 to 6 replicates for every experimental condition, including vehicle-treated controls. Fold induction in HIV RNA levels was calculated as a ratio of mean signals from compound-treated and vehicle (DMSO)-treated control samples from the same donor under identical conditions. […] For experiments using blood-derived resting CD4 T cells, culture supernatants from 3 replicate wells were combined and analyzed using the COBAS system."}, "[9]": {"test_system": "latent HIV in memory CD4 T cells from HIV-infected patients on suppressive cART", "text": "We used HIV RNA in cell culture supernatants as a surrogate marker for virion release from treated cells. We assumed that extracellular virions would accumulate over the course of several days; therefore, the duration of culture was extended to 6 days to maximize assay sensitivity.\nas §3, §4, §5"}, "[10]": {"test_system": "latent HIV in memory CD4 T cells from HIV-infected patients on suppressive cART", "assay": "Ex vivo activation of HIV transcription, cell-associated HIV RNA, memory CD4 T cells", "assay_type": "cell-based", "settings": "memory CD4 T cells, 1 µM VOR", "procedure": "as §1, §2"}, "[11]": {"test_system": "memory CD4 cells from HIV-infected patients", "assay": "Viability of primary memory CD4 cells (Cell TiterGlo, 6 days)", "assay_type": "cell-based, human", "settings": "same incubation period (6 days), data not shown", "procedure": "Cell viability was determined using a Cell TiterGlo reagent 6 days after the initiation of treatment and is expressed as a percentage of cell viability relative to control vehicle-treated memory CD4 cells from the same donors. The data represent mean +/− S.D. from three independent donors. (TIF) Click here for additional data file."}, "[12]": {"settings": "Human immunodeficiency virus 1, NL43, CD4+ T, 48 h"}},
  "note": "Several values for one entry are separate records, joined by “and”; a condition that tells them apart may be missing. Equal values may be shown once. Read-outs that look alike come from different tables or passages of the source.",
  "data": [
    {"smiles": "CCN(CC)Cc1ccc2cc(COC(=O)Nc3ccc(C(=O)NO)cc3)ccc2c1", "note": "[Givinostat, givinostat]", "values": [
      {"measurement": "EC50", "setting": "[1]; [12]", "result": "95.8 ± 20.3", "unit": "nM"},
      {"measurement": "CC50 at 48 h", "setting": "[2]", "result": 24000, "unit": "nM"}
    ]},
    {"smiles": "Nc1ccccc1NC(=O)c1ccc(CNc2nccc(-c3cccnc3)n2)cc1", "note": "[Mocetinostat, mocetinostat]", "values": [
      {"measurement": "EC50", "setting": "[1]; [12]", "result": 13600, "unit": "nM"},
      {"measurement": "CC50 at 48 h", "setting": "[2]", "result": 10100, "unit": "nM"}
    ]},
    {"smiles": "Cc1[nH]c2ccccc2c1CCNCc1ccc(/C=C/C(=O)NO)cc1", "note": "[PNB, panobinostat]", "values": [
      {"measurement": "EC50", "setting": "[1]; [12]", "result": 10, "unit": "nM"},
      {"measurement": "EC50", "setting": "[1]", "result": "10.1 ± 1", "unit": "nM"},
      {"measurement": "persistence of inhibition of cell-associated HDAC activity", "setting": "[3]", "result": "transient and decreased after 24 hours of incubation"},
      {"measurement": "CC50 at 48 h", "setting": "[2]", "result": "> 2500", "unit": "nM"},
      {"measurement": "HIV transcription and viremia in peripheral blood", "setting": "HIV; multiple doses of PNB, HIV-positive patients on suppressive cART", "result": "induce intracellular HIV transcription and low-level viremia"},
      {"measurement": "HIV RNA avg", "setting": "[4]; 6 hours", "result": "4342 copies/mil cells and 2414 copies/mil cells"},
      {"measurement": "HIV RNA avg", "setting": "[4]; 24 hours", "result": "11600 copies/mil cells and 5606 copies/mil cells"},
      {"measurement": "HIV RNA avg", "setting": "[4]; 48 hours", "result": "1815 copies/mil cells and 783 copies/mil cells"},
      {"measurement": "persistence of intracellular HIV RNA induction", "setting": "[4]; resting CD4 T cells", "result": "transient and diminished after 24 hours"}
    ]},
    {"smiles": "CCCCc1nc2cc(/C=C/C(=O)NO)ccc2n1CCN(CC)CC", "note": "[SB939, pracinostat]", "values": [
      {"measurement": "EC50", "setting": "[1]; [12]", "result": "212 ± 14", "unit": "nM"},
      {"measurement": "CC50 at 48 h", "setting": "[2]", "result": "> 50000", "unit": "nM"}
    ]},
    {"smiles": "O=C(CCCCCCC(=O)Nc1ccccc1)NO", "note": "[VOR, suberoylanilide hydroxamic acid]", "values": [
      {"measurement": "sequences of HIV RNA recovered in culture supernatants", "setting": "[5]", "result": "No HIV RNA sequences were recovered"},
      {"measurement": "cell death after HIV activation", "setting": "[6]", "result": "does not lead to cell death"},
      {"measurement": "fraction unbound", "setting": "[7]", "result": 0.68},
      {"measurement": "extracellular HIV RNA versus untreated controls", "setting": "[8]; 0.5 µM VOR continuous 6 days", "result": "did not increase extracellular HIV RNA significantly"},
      {"measurement": "patient-derived cultures with measurable increase of extracellular HIV RNA", "setting": "[8]; 1 µM VOR continuous 6 days", "result": "3 of 7"},
      {"measurement": "CC50 at 48 h", "setting": "[2]", "result": "> 25000", "unit": "nM"},
      {"measurement": "effect on total proviral DNA in peripheral CD4 T cells", "setting": "HIV; multiple-dose (14-day) trial of VOR", "result": "no apparent effect"},
      {"measurement": "mean increase in cell-associated HIV RNA levels", "setting": "HIV; once-daily VOR for 14 consecutive days, 20 patients", "result": "~3", "unit": "fold"},
      {"measurement": "mean increase in HIV RNA levels in resting CD4 T cells", "setting": "HIV; single 400 mg dose of VOR, 8 HIV-infected patients on cART", "result": 4.8, "unit": "fold"},
      {"measurement": "increases in the level of plasma viremia", "setting": "HIV; single-dose and 14-day VOR studies", "result": "not observed"},
      {"measurement": "HIV RNA in culture supernatants", "setting": "[9]; memory CD4 T cells, 1 µM VOR continuous 6 days, two patients", "result": "no significant increase"},
      {"measurement": "extracellular HIV RNA in culture supernatants", "setting": "[9]; memory CD4 T cells, 0.5 and 1 µM VOR for 24 hours, day 6", "result": "lack of HIV RNA release"},
      {"measurement": "cell-associated HIV RNA at 48 hours", "setting": "[10]", "result": "decreased by 48 hours to levels detected in vehicle-treated cells"},
      {"measurement": "cell-associated HIV RNA at 48 hours", "setting": "[4]; resting CD4 T cells, 1 µM VOR", "result": "decreased by 48 hours to levels detected in vehicle-treated cells"},
      {"measurement": "increase in intracellular HIV RNA levels versus vehicle", "setting": "[4]; resting CD4 T cells, 1 µM VOR, 24-hour treatment", "result": "rapid, but transient and less-pronounced activation"},
      {"measurement": "persistence of intracellular HIV RNA induction", "setting": "[4]; resting CD4 T cells", "result": "transient and diminished after 24 hours"}
    ]},
    {"smiles": "CN(CC[C@H](N)CC(=O)N[C@H]1C=C[C@H](n2ccc(N)nc2=O)O[C@@H]1C(=O)O)C(=N)N", "note": "[blasticidine]", "values": [
      {"measurement": "cell death", "setting": "[11]", "result": "> 80", "unit": "%"},
      {"measurement": "release of HIV RNA into cell culture supernatants", "setting": "[9]; highly cytotoxic control, data not shown", "result": "did not lead to release of detectable levels of HIV RNA"}
    ]}
  ]
}
